Test results as given in patent US20260374766A1, “METHODS FOR TREATING CANCER” (Antares Therapeutics, Inc., priority 2022, published 2026).
Where two headings read alike, the source gives them in different places.

Legend:
[1] = target: T1, p53 Y220C mutant protein (amino acid residues 94-293) (Homo sapiens, UniProt P04637, Y220C); assay: Thermal Shift Assay (TSA), dTM; type: binding; conditions: for ΔTm at 10 µM: 10 uM compound; for ΔTm at 100 µM: 100 uM compound
T1 construct: p53 Y220C mutant protein (amino acid residues 94-293)
How it was run: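 Sypro Orange melt (30→50 °C, 0.03 °C/s) with TM taken from a Boltzmann two-state fit. Protein (residues 94-293) at 5 μM was pre-incubated 3 h at 20 °C with compound at 10 μM or 100 μM in pH 7.4 HEPES/NaCl buffer containing 0.01% Pluronic F-127 and 1% DMSO.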

[2] = tested on: NUGC3 p53 Y220C; assay: Cell Proliferation Assay (CellTiter-Glo, CTG), NUGC3 p53 Y220C; type: cell-based; conditions: Homo sapiens, NUGC-3, 120 h, CellTiter-Glo, 5 days
How it was run: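 Tet-One inducible p53 Y220C or R273H constructs were stably introduced into NCI-H1299 by lentiviral transduction; NUGC3 was used as is. Cells (250-500 per well) were exposed to compound for 5 days, then CellTiter-Glo was added for 10 min at room temperature and IC50 was calculated from luminescence.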

[3] = tested on: H1299 p53 R273H; assay: Cell Proliferation Assay (CellTiter-Glo, CTG), H1299 p53 R273H (NClH1299-inducible p53 R273H); type: cell-based; conditions: Homo sapiens, NCI-H1299, 120 h, CellTiter-Glo, 5 days
How it was run: (§1)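 NClH1299 lines stably transduced with Tet-inducible p53 Y220C or R273H, plus NUGC3, were treated with compound for 5 days at 250-500 cells/well. IC50 derived from CellTiter-Glo luminescent signal after 10 min room-temperature incubation.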

[4] = target: p53 Y220C (Homo sapiens, UniProt P04637, Y220C); assay: Luciferase Reporter Assay (Luc), p53 response element, NClH1299 cells with inducible p53 Y220C; type: cell-based; conditions: luciferase reporter, NClH1299 inducible p53 Y220C, 6 hour; for AC50: read-out: Luc P53 Y220C AC50
How it was run: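 Cells were seeded at 5,000 per well and induced with 0.5 ug/mL doxycycline for 24 hours, then exposed to compound for 6 hours. One-Glo reagent was added, plates shaken 5 minutes at room temperature, and luminescence read immediately.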

[5] = target: T1, p53 Y220C mutant protein (amino acid residues 94-293); assay: Surface Plasmon Resonance (SPR) assay, Kd_kinetic; type: binding; conditions: read-out: SPR P53 Y220C KD kinetic
How it was run: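 Biacore 8K SPR; 16 or 20 °C; Tris 50 mM pH 7.5, NaCl 100 mM, DTT 1 mM, Brij35 0.01%, Tween-20 0.05%, DMSO 1%. Kd_kinetic by 1:1 fit.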

[6] = tested on: H1299 p53 Y220C; assay: Cell Proliferation Assay (CellTiter-Glo, CTG), H1299 p53 Y220C (NClH1299-inducible p53 Y220C); type: cell-based; conditions: Homo sapiens, NCI-H1299, 120 h, CellTiter-Glo, 5 days
How it was run: as §1

[7] = thermal shift, read-out: TSA P53 Y220C dTM (10 uM)
[8] = thermal shift, read-out: TSA P53 Y220C dTM (100 uM)
[9] = 10 uM tool compound as positive control
[10] = p53 Y220C, read-out: TSA P53 Y220C dTM
[11] = NClH1299-inducible p53 R273H cells
[12] = NClH1299-inducible p53 Y220C cells

SMILES	ΔTm at 10 µM [1, 7]	ΔTm at 100 µM [1, 8]	IC50 ([2]; NUGC3 p53 Y220C)	IC50 ([3]; H1299 p53 R273H)	Emax [4, 9]	AC50 [4]	Kd [5]	IC50 ([6]; H1299 p53 Y220C)	Kd ([5]; SPR, kinetic KD, p53 Y220C)	ΔTm at 10 µM [1, 10]	ΔTm at 100 µM [1, 10]	IC50 ([2]; NUGC3 cells)	IC50 [3, 11]	AC50 ([4]; AC50)	Emax ([4]; Emax)	Kd ([5]; SPR, p53 Y220C)	IC50 [6, 12]
CNC(=O)c1ccc(OC)c(NCC#Cc2nc3c(N[C@@H]4CCN(C)C[C@@H]4F)cccn3c2SC(F)(F)F)n1 [Example 158]	≥ 10 °C	≥ 10 °C	< 750 nM	5000 to 8000 nM	80 to 90%	< 750 nM	< 10 nM	< 750 nM	–	–	–	–	–	–	–	–	–
CN1CC[C@@H](Nc2cccn3c(CC(F)(F)F)c(C#CCCN)nc23)[C@@H](F)C1 [Example 74, (3S,4R)—N-[2-(4-aminobut-1-yn-1-yl)-3-(2,2,2-trifluoroethyl)imidazo[1,2-a]pyridin-8-yl]-3-fluoro-1-methylpiperidin-4-amine]	–	5 to 10 °C	> 3000 nM	≥ 10000 nM	< 70%	> 3000 nM	–	> 3000 nM	100 to 1000 nM	–	–	–	–	–	–	–	–
CCNC(=O)c1cnc(OC)c(NCC#Cc2cc3c(N[C@@H]4CCN(C)C[C@@H]4F)nccn3c2SC(F)(F)F)c1 [Example 291]	–	–	–	–	–	–	–	–	–	≥ 10 °C	≥ 10 °C	< 750 nM	≥ 10000 nM	< 750 nM	> 90%	< 10 nM	< 750 nM
CNC(=O)c1ccc(OC)c(NCC#Cc2nn3c(N[C@@H]4CCN(C)C[C@@H]4F)cccc3c2SC(F)(F)F)n1 [Example 234]	–	–	–	–	–	–	–	–	–	≥ 10 °C	–	< 750 nM	8000 to 10000 nM	< 750 nM	80 to 90%	< 10 nM	< 750 nM
CCNC(=O)c1ccc(NCC#Cc2nc3c(N[C@@H]4CCN(C)C[C@@H]4F)cccn3c2SC(F)(F)F)c(OC)c1 [Example 85, N-ethyl-4-{[3-(8-{[(3S,4R)-3-fluoro-1-methylpiperidin-4-yl]amino}-3-[(trifluoromethyl)sulfanyl]imidazo[1,2-a]pyridin-2-yl)prop-2-yn-1-yl]amino}-3-methoxybenzamide]	–	≥ 10 °C	< 750 nM	5000 to 8000 nM	80 to 90%	< 750 nM	–	< 750 nM	< 10 nM	–	–	–	–	–	–	–	–
CNC(=O)c1ccc(NCC#Cc2cc3c(N[C@@H]4CCN(C)C[C@@H]4F)nccn3c2SC(F)(F)F)c(OC)c1 [Example 155, 4-{[3-(1-{[(3S,4R)-3-fluoro-1-methylpiperidin-4-yl]amino}-6-[(trifluoromethyl)sulfanyl]pyrrolo[1,2-a]pyrazin-7-yl)prop-2-yn-1-yl]amino}-3-methoxy-N-methylbenzamide; formic acid]	≥ 10 °C	≥ 10 °C	< 750 nM	8000 to 10000 nM	> 90%	< 750 nM	< 10 nM	< 750 nM	–	–	–	–	–	–	–	–	–
COc1cc2c(cc1NCC#Cc1nc3c(N[C@@H]4CCN(C)C[C@@H]4F)cccn3c1SC(F)(F)F)C(=O)NC2 [Example 151]	≥ 10 °C	–	< 750 nM	5000 to 8000 nM	> 90%	< 750 nM	–	< 750 nM	< 10 nM	–	–	–	–	–	–	–	–
CNC(=O)c1ccc(NCC#Cc2nc3c(NC4CCN(C)CC4)cccn3c2SC(F)(F)F)c(OC)c1 [Example 129]	≥ 10 °C	≥ 10 °C	< 750 nM	5000 to 8000 nM	80 to 90%	< 750 nM	–	< 750 nM	< 10 nM	–	–	–	–	–	–	–	–
CNC(=O)c1ccc(NCC#Cc2nc3c(N[C@H]4CCn5cncc5C4)cccn3c2SC(F)(F)F)c(OC)c1 [Example 177]	≥ 10 °C	≥ 10 °C	750 to 1500 nM	5000 to 8000 nM	80 to 90%	< 750 nM	–	< 750 nM	< 10 nM	–	–	–	–	–	–	–	–
